Values joined by “and” are separate entries in the source; they are usually repeats but may differ in a detail not shown here. Equal entries are not always repeated. Where two headings read alike, the source gives them in different places.
Legend:
A. baumannii [1] = tested on: A. baumannii; set-up: method as in PMID 34349751; settings: cited from earlier work
A. baumannii [2] = assay: Murine neutropenic lung infection model, PK/PD exposure-response; type: in vivo, CD-1 mice
Description: (§1) Magnitudes associated with 1-log10 and 2-log10 CFU reduction from baseline at 24 hours as well as the exposure required for an 80% reduction in bacterial burden (EC80) were determined from the fitted function.

[3] = based on total ELF and plasma AUC exposures; cited from earlier work
in vivo = settings: CD-1, mouse
A. baumannii [4] = settings: in vitro pharmacodynamic models; cited from earlier work
[5] = set-up: method as in data on file Entasis Therapeutics; settings: mean of mouse plasma protein unbound fractions ex vivo, 0.4 µM to 50 µM; ref data on file Entasis Therapeutics; cited from earlier work
A. baumannii [6] = type: in vivo
Description: as §1

A. baumannii [7] = assay: Murine neutropenic thigh and lung models taken together; type: in vivo, CD-1 mice
Description: as §1

[8] = Distribution into mouse ELF (plasma and BAL sampling); settings: 100:25 mg/kg sulbactam:durlobactam SC, neutropenic mice infected with ARC2058
[9] = Population PK in infected neutropenic mice (two-compartment model)
Description: As the plasma PK of neutropenic lung-infected animals matched that of thigh-infected animals, the thigh-infected PK was used for the development of the population PK model and subsequent exposure estimates for doses used in the PK/PD exposure-response analyses. Pharmacokinetic models were fit to time vs. drug concentration profiles generated in infected mice using Phoenix6.2 WinNonLin and NLME. […] Predicted exposures were utilized in the PK/PD analyses as all dosing solutions tested were within the variability of the bioanalytical method (20%).

A. baumannii isolates = assay: Broth MIC testing (CLSI methodology); type: cell-based; settings: Acinetobacter baumannii, modal MIC, combination = sulbactam with fixed 4 µg/mL durlobactam
Description: All strains with an “ARC” designation are part of the Entasis collection of clinical isolates. All isolates have been previously characterized by whole genome sequencing.

[10] = tested on: 4,038 recent, global, clinical isolates of A. baumannii; set-up: method as in PMID 36005804; settings: 4,038 global clinical isolates, cited from earlier work
A. baumannii [11] = type: in vivo; settings: thigh model; oral 200 mg/kg bid; A. baumannii ARC2058; 24 h
[12] = thigh (4:1 dose), 5 strains, SUL mean exposure 32.9 to 43.5%T>MIC, 24 h
[13] = mean of thigh 4:1, lung 4:1 and thigh fixed SUL dose
[14] = sulbactam and durlobactam co-administered 4:1 SC, predicted value (% coefficient of variance)
[15] = lung model, A. baumannii ARC2058, SC q6h, 24 h
[16] = thigh model, A. baumannii ARC2058, SC q6h, 24 h
[17] = co-modeled thigh (n = 6 strains), sulbactam alone and combined with durlobactam
[18] = thigh, ARC2058, sulbactam only, 24 h
[19] = thigh, ARC3484, sulbactam:durlobactam 4:1 dosing, 24 h
[20] = thigh, ARC5081, sulbactam:durlobactam 4:1 dosing, 24 h
[21] = thigh, ARC5091, sulbactam:durlobactam 4:1 dosing, 24 h
[22] = thigh, mean of individual CRAB strains, 4:1 dosing

For `CC1=C[C@@H]2CN(C(=O)N2OS(=O)(=O)O)[C@@H]1C(N)=O` [Durlobactam, durlobactam], the “intrinsic antibacterial activity against A. baumannii on its own” value (A. baumannii [1]) is given as “no significant intrinsic antibacterial activity”, the “Co-modeled durlobactam fAUC/MIC ratio for 1-log10 CFU reduction from baseline” value (A. baumannii [2]; mouse, in vivo) is given as 10.6 and the “Co-modeled durlobactam fAUC/MIC ratio for 2-log10 CFU reduction from baseline” value (A. baumannii [2]; mouse, in vivo) is given as 22.4. For the same compound, the “Co-modeled durlobactam fAUC/MIC ratio for EC80” value (A. baumannii [2]; mouse, in vivo) was 78.6, the “ELF penetration observed clinically” value [3] was 37% and the Kp (in vivo; epithelial lining fluid (ELF) / plasma, subcutaneous) was 0.63. It also gave an AUC (in vivo; in vivo, sc, 25 mg/kg) of 7000 ng·h/mL, a Kp (in vivo; in vivo, sc, 25 mg/kg) of 0.63 and a concentration at 1 h (in vivo; in vivo, sc, 25 mg/kg) of 4070 ± 1790 ng/mL. For the same compound, the concentration at 3 h (in vivo; in vivo, sc, 25 mg/kg) was 330 ± 130 ng/mL, the concentration at 12 h (in vivo; in vivo, sc, 25 mg/kg) was 10 ± 1 ng/mL and the “durlobactam AUC/MIC associated with net 1-log10 CFU reduction over 24 hours” value (A. baumannii [4]) was > 10 and 10. The murine unbound fraction [5] was 100%, the “Co-modeled durlobactam fAUC/MIC ratio for EC80” value (A. baumannii [6]; mouse, in vivo) was 38.2 and the “Co-modeled durlobactam fAUC/MIC ratio for 1-log10 CFU reduction from baseline” value (A. baumannii [6]; [12]) was 8.0. For the same compound, the “Co-modeled durlobactam fAUC/MIC ratio for 2-log10 CFU reduction from baseline” value (A. baumannii [6]; [12]) was 16.0, the “Co-modeled durlobactam fAUC/MIC ratio for EC80” value (A. baumannii [6]; [12]) was 15.1 and the “durlobactam fAUC/MIC0-24 at which an additional log10 CFU reduction can be realized” value (A. baumannii [7]; both thigh and lung models, in combination with sulbactam) was ~ 30. The “durlobactam fAUC/MIC0-24 at which 1-log10 CFU reduction over 24 hours can be realized” value (A. baumannii [7]; both thigh and lung models, in combination with sulbactam, co-modeled across strains) was 10 and ~ 10, the “Durlobactam fAUC/MIC ratio for 1-log10 CFU reduction from baseline, Mean ± SD” value (A. baumannii [7]; [13]) was 8.7 ± 1.7 and the “Durlobactam fAUC/MIC ratio for 2-log10 CFU reduction from baseline, Mean ± SD” value (A. baumannii [7]; [13]) was 23.4 ± 7.9. The “Durlobactam fAUC/MIC ratio for EC80, Mean ± SD” value (A. baumannii [7]; [13]) was 44.0 ± 32.1, the “AUC, ELF” value [8] was 4400 ng·h/mL and the “Concentration, ELF” value ([8]; 1 h) was 2480 ± 910 ng/mL. The “Concentration, ELF” value ([8]; 3 h) was 260 ± 150 ng/mL, the “Concentration, ELF” value ([8]; 6 h) was 2 ± 1 ng/mL and the “Concentration, Plasma” value ([8]; 6 h) was 30 ± 10 ng/mL. For the same compound, the “Concentration, ELF” value ([8]; 12 h) was “BLQ”, the “Cl1 (clearance of central compartment)” value [9, 14] was 3.0747 (7.3) L/kg/h and the “Ka (absorption rate)” value [9, 14] was 13.5 (32.6) 1/hr. The “V1 (central compartment volume of distribution)” value [9, 14] was 1.2508 (8.4) L/kg.

With `C[C@@H](O)[C@H]1C(=O)N2C(C(=O)O)=C(S[C@@H]3CN[C@H](C(=O)N(C)C)C3)[C@H](C)[C@H]12` [Meropenem, meropenem] the “Meropenem %fT>MIC for 1-log10 CFU/g reduction from baseline” value (A. baumannii [2]; [15]) was 29.4%, the “Meropenem %fT>MIC for 2-log10 CFU/g reduction from baseline” value (A. baumannii [2]; [15]) was 32.2% and the “Meropenem %fT>MIC for EC80” value (A. baumannii [2]; [15]) was 39.7%. For the same compound, the “Meropenem %fT>MIC for 1-log10 CFU/g reduction from baseline” value (A. baumannii [6]; [16]) was 27.2%, the “Meropenem %fT>MIC for 2-log10 CFU/g reduction from baseline” value (A. baumannii [6]; [16]) was 32.4% and the “Meropenem %fT>MIC for EC80” value (A. baumannii [6]; [16]) was 36.0%.

Compound `CC1(C)[C@H](C(=O)O)N2C(=O)C[C@H]2S1(=O)=O` [Sulbactam, sulbactam] has an MIC (A. baumannii isolates; A. baumannii ARC2058) of 2 µg/mL, an MIC (A. baumannii isolates; A. baumannii ARC3484) of 16 µg/mL and an MIC (A. baumannii isolates; A. baumannii ARC3486) of 32 µg/mL. The MIC (A. baumannii isolates; A. baumannii ARC5077) was 16 µg/mL, the MIC (A. baumannii isolates; A. baumannii ARC5079) was 32 µg/mL and the MIC (A. baumannii isolates; A. baumannii ARC5081) was 16 µg/mL. It also gave an MIC (A. baumannii isolates; A. baumannii ARC5091) of 8 µg/mL, an MIC (A. baumannii isolates; A. baumannii ARC5950) of 64 µg/mL and an MIC (A. baumannii isolates; A. baumannii ARC5954) of 32 µg/mL. For the same compound, the MIC (A. baumannii isolates; A. baumannii ARC5955) was 64 µg/mL, the MIC90 of sulbactam ([10]; sulbactam alone) was 64 µg/mL and the MIC90 of sulbactam ([10]; with the addition of durlobactam) was 2 µg/mL. For the same compound, the murine unbound fraction [5] was 100%, the “Sulbactam %fT>MIC for 2-log10 CFU reduction from baseline” value (A. baumannii [6]; [17]) was 38.2% and the “Sulbactam %fT>MIC for EC80” value (A. baumannii [6]; [17]) was 44.1%. For the same compound, the “Sulbactam %fT>MIC for 1-log10 CFU reduction from baseline” value (A. baumannii [6]; [18]) was 20.5%, the “Sulbactam %fT>MIC for 2-log10 CFU reduction from baseline” value (A. baumannii [6]; [18]) was 31.5% and the “Sulbactam %fT>MIC for EC80” value (A. baumannii [6]; [18]) was 47.0%. The “Sulbactam %fT>MIC for 2-log10 CFU reduction from baseline” value (A. baumannii [6]; [19]) was 40.2%, the “Sulbactam %fT>MIC for EC80” value (A. baumannii [6]; [19]) was 42.8% and the “Sulbactam %fT>MIC for EC80” value (A. baumannii [6]; thigh, ARC3486, sulbactam:durlobactam 4:1 dosing, 24 h) was 55.3%. The “Sulbactam %fT>MIC for EC80” value (A. baumannii [6]; thigh, ARC5079, sulbactam:durlobactam 4:1 dosing, 24 h) was 53.2%, the “Sulbactam %fT>MIC for 1-log10 CFU reduction from baseline” value (A. baumannii [6]; [20]) was 26.3% and the “Sulbactam %fT>MIC for 2-log10 CFU reduction from baseline” value (A. baumannii [6]; [20]) was 28.8%. For the same compound, the “Sulbactam %fT>MIC for EC80” value (A. baumannii [6]; [20]) was 32.0%, the “Sulbactam %fT>MIC for 1-log10 CFU reduction from baseline” value (A. baumannii [6]; [21]) was 26.7% and the “Sulbactam %fT>MIC for 2-log10 CFU reduction from baseline” value (A. baumannii [6]; [21]) was 29.3%. The “Sulbactam %fT>MIC for EC80” value (A. baumannii [6]; [21]) was 30.4%, the “Sulbactam %fT>MIC for 2-log10 CFU reduction from baseline, Mean ± SD” value (A. baumannii [6]; [22]) was 38.6 ± 10.0% and the “Sulbactam %fT>MIC for EC80, Mean ± SD” value (A. baumannii [6]; [22]) was 42.7 ± 11.6%. For the same compound, the “sulbactam fT>MIC at which 1-log10 CFU reduction over 24 hours can be realized” value (A. baumannii [7]; both thigh and lung models, in combination with durlobactam, co-modeled across strains) was “exceeds 50%”, the “sulbactam fT>MIC at which 2-log10 CFU reduction was achieved” value (A. baumannii [7]; present in vivo study, sulbactam-susceptible isolate ARC2058) was “exceeded 50%” and the “AUC, ELF” value [8] was 10300 ng·h/mL. For the same compound, the “AUC, Plasma” value [8] was 32300 ng·h/mL, the “Concentration, ELF” value ([8]; 1 h) was 5700 ± 1150 ng/mL and the “Concentration, Plasma” value ([8]; 1 h) was 18550 ± 5870 ng/mL. The “Concentration, ELF” value ([8]; 3 h) was 540 ± 120 ng/mL, the “Concentration, Plasma” value ([8]; 3 h) was 1690 ± 560 ng/mL and the “Concentration, ELF” value ([8]; 6 h) was 290 ± 140 ng/mL. For the same compound, the “Concentration, Plasma” value ([8]; 6 h) was 100 ± 50 ng/mL, the “Concentration, ELF” value ([8]; 12 h) was 60 ± 10 ng/mL and the “Concentration, Plasma” value ([8]; 12 h) was 20 ± 10 ng/mL. For the same compound, the “V1 (central compartment volume of distribution)” value ([9]; sulbactam alone, SC, predicted value) was 1.8847 L/kg, the “Ka (absorption rate)” value ([9]; sulbactam alone, SC, predicted value (% coefficient of variance)) was 6 (12.5) 1/hr and the “Ka (absorption rate)” value [9, 14] was 12 (8.4) 1/hr. The “V1 (central compartment volume of distribution)” value [9, 14] was 1.0177 (7.0) L/kg.

With `C[C@H]1COc2c(N3CCN(C)CC3)c(F)cc3c(=O)c(C(=O)O)cn1c23` [levofloxacin] the “change in log10 CFU (positive control)” value (A. baumannii [11]) was −2.4 log10 CFU and the “log10 CFU/g reduction (positive control)” value (A. baumannii [2]; lung model, oral 200 mg/kg bid, A. baumannii ARC2058, 24 h) was 1.8 log10 CFU/g.

Reference: paper PMC10777848 (Antimicrobial Agents and Chemotherapy, 2023)
